Measurements: PubChem BioAssay AID1259407 (Chemical Carcinogenesis Research Information System (CCRIS), 2018)
The source made the active and inactive calls. How the calls were made is not given here.

System: CCRIS mutagenicity, Ames/micronucleus/aberration tests
Assay: CCRIS mutagenicity studies
[1] = Test System: AMES SALMONELLA TYPHIMURIUM, Strain/Indicator: TA1538, Metabolic Activation: NONE, Method: STANDARD PLATE
[2] = Test System: AMES SALMONELLA TYPHIMURIUM, Strain/Indicator: TA1538, Metabolic Activation: RAT, LIVER, S-9, AROCLOR 1254, Method: STANDARD PLATE
[3] = Test System: AMES SALMONELLA TYPHIMURIUM, Strain/Indicator: TA98, Metabolic Activation: NONE, Method: STANDARD PLATE
[4] = Test System: AMES SALMONELLA TYPHIMURIUM, Strain/Indicator: TA98, Metabolic Activation: RAT, LIVER, S-9, AROCLOR 1254, Method: STANDARD PLATE
[5] = Test System: AMES SALMONELLA TYPHIMURIUM, Strain/Indicator: TA100, Metabolic Activation: NONE, Method: STANDARD PLATE

For `CCN(CC)c1ccc2c(-c3ccccc3C(=O)O)c3ccc(=[N+](CC)CC)cc-3oc2c1`, the mutagenic call (Test System: AMES SALMONELLA TYPHIMURIUM, Strain/Indicator: TA97, Metabolic Activation: HAMSTER, LIVER, S-9, AROCLOR 1254 (10%), Method: PREINCUBATION) was “inactive; negative”, the mutagenic call (Test System: AMES SALMONELLA TYPHIMURIUM, Strain/Indicator: TA97, Metabolic Activation: HAMSTER, LIVER, S-9, AROCLOR 1254 (30%), Method: PREINCUBATION) was “inactive; negative” and the mutagenic call (Test System: AMES SALMONELLA TYPHIMURIUM, Strain/Indicator: TA97, Metabolic Activation: NONE, Method: PREINCUBATION) was “inactive; negative”. For the same compound, the mutagenic call (Test System: AMES SALMONELLA TYPHIMURIUM, Strain/Indicator: TA97, Metabolic Activation: RAT, LIVER, S-9, AROCLOR 1254 (10%), Method: PREINCUBATION) was “inactive; negative”, the mutagenic call (Test System: AMES SALMONELLA TYPHIMURIUM, Strain/Indicator: TA97, Metabolic Activation: RAT, LIVER, S-9, AROCLOR 1254 (30%), Method: PREINCUBATION) was “inactive; negative” and the mutagenic call (Test System: AMES SALMONELLA TYPHIMURIUM, Strain/Indicator: TA98, Metabolic Activation: HAMSTER, LIVER, S-9, AROCLOR 1254 (10%), Method: PREINCUBATION) was “inactive; negative”. The mutagenic call (Test System: AMES SALMONELLA TYPHIMURIUM, Strain/Indicator: TA98, Metabolic Activation: HAMSTER, LIVER, S-9, AROCLOR 1254 (30%), Method: PREINCUBATION) was “inactive; negative”, the mutagenic call (Test System: AMES SALMONELLA TYPHIMURIUM, Strain/Indicator: TA98, Metabolic Activation: NONE, Method: PREINCUBATION) was “inactive; negative” and the mutagenic call (Test System: AMES SALMONELLA TYPHIMURIUM, Strain/Indicator: TA98, Metabolic Activation: RAT, LIVER, S-9, AROCLOR 1254 (10%), Method: PREINCUBATION) was “inactive; negative”. For the same compound, the mutagenic call (Test System: AMES SALMONELLA TYPHIMURIUM, Strain/Indicator: TA98, Metabolic Activation: RAT, LIVER, S-9, AROCLOR 1254 (30%), Method: PREINCUBATION) was “inactive; negative”, the mutagenic call (Test System: AMES SALMONELLA TYPHIMURIUM, Strain/Indicator: TA98, Metabolic Activation: RAT, LIVER, S-9, BETA-NAPHTHOFLAVONE AND PHENOBARBITAL, Method: PREINCUBATION) was “active; positive” and the mutagenic call (Test System: AMES SALMONELLA TYPHIMURIUM, Strain/Indicator: TA100, Metabolic Activation: HAMSTER, LIVER, S-9, AROCLOR 1254 (10%), Method: PREINCUBATION) was “inactive; negative”. For the same compound, the mutagenic call (Test System: AMES SALMONELLA TYPHIMURIUM, Strain/Indicator: TA100, Metabolic Activation: HAMSTER, LIVER, S-9, AROCLOR 1254 (30%), Method: PREINCUBATION) was “inactive; negative”, the mutagenic call (Test System: AMES SALMONELLA TYPHIMURIUM, Strain/Indicator: TA100, Metabolic Activation: NONE, Method: PREINCUBATION) was “inactive; negative” and the mutagenic call (Test System: AMES SALMONELLA TYPHIMURIUM, Strain/Indicator: TA100, Metabolic Activation: RAT, LIVER, S-9, AROCLOR 1254 (10%), Method: PREINCUBATION) was “inactive; negative”. The mutagenic call (Test System: AMES SALMONELLA TYPHIMURIUM, Strain/Indicator: TA100, Metabolic Activation: RAT, LIVER, S-9, AROCLOR 1254 (30%), Method: PREINCUBATION) was “inactive; negative”, the mutagenic call (Test System: AMES SALMONELLA TYPHIMURIUM, Strain/Indicator: TA1535, Metabolic Activation: HAMSTER, LIVER, S-9, AROCLOR 1254 (5%), Method: PREINCUBATION) was “inactive; negative” and the mutagenic call (Test System: AMES SALMONELLA TYPHIMURIUM, Strain/Indicator: TA1535, Metabolic Activation: HAMSTER, LIVER, S-9, AROCLOR 1254 (10%), Method: PREINCUBATION) was “inactive; negative”. For the same compound, the mutagenic call (Test System: AMES SALMONELLA TYPHIMURIUM, Strain/Indicator: TA1535, Metabolic Activation: HAMSTER, LIVER, S-9, AROCLOR 1254 (30%), Method: PREINCUBATION) was “inactive; negative”, the mutagenic call (Test System: AMES SALMONELLA TYPHIMURIUM, Strain/Indicator: TA1535, Metabolic Activation: NONE, Method: PREINCUBATION) was “inactive; negative” and the mutagenic call (Test System: AMES SALMONELLA TYPHIMURIUM, Strain/Indicator: TA1535, Metabolic Activation: RAT, LIVER, S-9, AROCLOR 1254 (5%), Method: PREINCUBATION) was “inactive; negative”. For the same compound, the mutagenic call (Test System: AMES SALMONELLA TYPHIMURIUM, Strain/Indicator: TA1535, Metabolic Activation: RAT, LIVER, S-9, AROCLOR 1254 (10%), Method: PREINCUBATION) was “inactive; negative”, the mutagenic call (Test System: AMES SALMONELLA TYPHIMURIUM, Strain/Indicator: TA1535, Metabolic Activation: RAT, LIVER, S-9, AROCLOR 1254 (30%), Method: PREINCUBATION) was “inactive; negative” and the mutagenic call (Test System: AMES SALMONELLA TYPHIMURIUM, Strain/Indicator: TA1537, Metabolic Activation: HAMSTER, LIVER, S-9, AROCLOR 1254 (10%), Method: PREINCUBATION) was “inactive; negative”. The mutagenic call (Test System: AMES SALMONELLA TYPHIMURIUM, Strain/Indicator: TA1537, Metabolic Activation: NONE, Method: PREINCUBATION) was “inactive; negative”, the mutagenic call (Test System: AMES SALMONELLA TYPHIMURIUM, Strain/Indicator: TA1537, Metabolic Activation: RAT, LIVER, S-9, AROCLOR 1254 (10%), Method: PREINCUBATION) was “inactive; negative” and the mutagenic call [1] was “inactive; negative”. The mutagenic call [2] was “inactive; negative”, the mutagenic call (Test System: CHINESE HAMSTER V-79, Strain/Indicator: V-79/6-THIOGUANINE, Metabolic Activation: NONE, Method: SUSPENSION/PLATE) was “inactive; negative” and the mutagenic call (Test System: CHINESE HAMSTER V-79, Strain/Indicator: V-79/6-THIOGUANINE, Metabolic Activation: RAT, LIVER, S-9, PHENOBARBITAL AND BETA-NAPHTHOFLAVONE, Method: SUSPENSION/PLATE) was “inactive; negative”.

In the case of `Oc1cc2c3ccccc3ccc2c2ccccc12`, the mutagenic call [3] is reported as “inactive; negative”, the mutagenic call [4] is reported as “inactive; negative” and the mutagenic call [5] is reported as “inactive; negative”.

In the case of `CCCO`, the mutagenic call (Test System: AMES SALMONELLA TYPHIMURIUM, Strain/Indicator: TA98, Metabolic Activation: HAMSTER, LIVER, S-9, AROCLOR 1254, Method: STANDARD PLATE) is reported as “inactive; negative”, the mutagenic call [3] is reported as “inactive; negative” and the mutagenic call [4] is reported as “inactive; negative”. For the same compound, the mutagenic call (Test System: AMES SALMONELLA TYPHIMURIUM, Strain/Indicator: TA100, Metabolic Activation: HAMSTER, LIVER, S-9, AROCLOR 1254, Method: STANDARD PLATE) was “inactive; negative”, the mutagenic call [5] was “inactive; negative” and the mutagenic call (Test System: AMES SALMONELLA TYPHIMURIUM, Strain/Indicator: TA100, Metabolic Activation: RAT, LIVER, S-9, AROCLOR 1254, Method: STANDARD PLATE) was “inactive; negative”. The mutagenic call (Test System: AMES SALMONELLA TYPHIMURIUM, Strain/Indicator: TA1535, Metabolic Activation: HAMSTER, LIVER, S-9, AROCLOR 1254, Method: STANDARD PLATE) was “inactive; negative”, the mutagenic call (Test System: AMES SALMONELLA TYPHIMURIUM, Strain/Indicator: TA1535, Metabolic Activation: NONE, Method: STANDARD PLATE) was “inactive; negative” and the mutagenic call (Test System: AMES SALMONELLA TYPHIMURIUM, Strain/Indicator: TA1535, Metabolic Activation: RAT, LIVER, S-9, AROCLOR 1254, Method: STANDARD PLATE) was “inactive; negative”. For the same compound, the mutagenic call (Test System: AMES SALMONELLA TYPHIMURIUM, Strain/Indicator: TA1537, Metabolic Activation: HAMSTER, LIVER, S-9, AROCLOR 1254, Method: STANDARD PLATE) was “inactive; negative”, the mutagenic call (Test System: AMES SALMONELLA TYPHIMURIUM, Strain/Indicator: TA1537, Metabolic Activation: NONE, Method: STANDARD PLATE) was “inactive; negative” and the mutagenic call (Test System: AMES SALMONELLA TYPHIMURIUM, Strain/Indicator: TA1537, Metabolic Activation: RAT, LIVER, S-9, AROCLOR 1254, Method: STANDARD PLATE) was “inactive; negative”. The mutagenic call (Test System: AMES SALMONELLA TYPHIMURIUM, Strain/Indicator: TA1538, Metabolic Activation: HAMSTER, LIVER, S-9, AROCLOR 1254, Method: STANDARD PLATE) was “inactive; negative”, the mutagenic call [1] was “inactive; negative” and the mutagenic call [2] was “inactive; negative”. The mutagenic call (Test System: MOUSE LYMPHOMA, Strain/Indicator: L5178Y (TK+/TK-), Metabolic Activation: NONE, Method: SUSPENSION/PLATE) was “inactive; negative” and the mutagenic call (Test System: MOUSE LYMPHOMA, Strain/Indicator: L5178Y (TK+/TK-), Metabolic Activation: RAT, LIVER, S-9, AROCLOR 1254, Method: SUSPENSION/PLATE) was “inactive; negative”.
